Laboratory results as given in patent US20260224482A1, “USE OF OXIDATIVE PRECURSORS IN POULTRY FARMING” (AGA NANOTECH LTD, priority 2023, published 2026).
Entries after “also recorded” stand apart in the source; their conditions may differ.

Experiments:
[1] = system: Ross 308 male day-old chickens; test: In-water PAA in chickens: performance and safety; format: in vivo
Description: (§1) A total of 96 Ross 308 male day-old chickens were used during the trial duration (randomized block design with 2 rooms, 12 pens per room, 4 birds per pen and 4 pens per level of inclusion), whilst PAA treatment was administered during the last week. Six different PAA levels of inclusion were tested through in-water daily administration of SP and TAED precursors. Possible PAA effect on body weight gain (BWG), FCR (feed conversion ratio), feed/water intake and BN (bacterial number) were assessed through fitting linear mixed model (i.e. treatment as fixed effect and hierarchy of room/pen/bird when possible as random effect). Longitudinal data were used when repeated measures were taken. Total bacterial number in DNA extracted from crop, jejunum and caecal content was calculated through qPCR targeting 16S rRNA gene (V3 region). Study design and protocol were approved by SRUC Animal Welfare and Review Body (POU AE 20-2019).

[2] = system: total bacterial number in crop content; test: Total bacterial number by qPCR targeting 16S rRNA gene; format: in vivo, chickens; conditions: in-water for one week via SP and TAED precursors; P=0.02
Description: as §1

CC(=O)OO [PAA, peracetic acid]
effect on BWG from D7 to D14 ([1]; PAA administered at 40 ppm, P=0.05): most evident effect | adverse effects ([1]; PAA in-water administration): no adverse effects | bird mortality ([1]; in-water PAA up to 50 ppm): 0 ^0/0 | BWG during treatment ([1]; in-water for one week via SP and TAED precursors, P=0.05): increased | BN in the crop [2]: reducing; also recorded: appears to be reduced by higher dosage
